What all share (assay): Bliss excess, mean over the matrix (fraction); higher = more synergy
The test system of test [1] is SUP-M2 (T-Cell Non-Hodgkin's Lymphoma). Put shortly:
(§1)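 Bliss excess equals the observed combination effect minus the expected value EA + EB − EA·EB, where EA and EB are the effects of each agent alone. Combination Emax is the second-highest inhibition within the matrix. Inhibition was scaled from CellTiter-Glo 2.0 luminescence, with 0 set by vehicle wells and 1 by blank wells, after 72 hours of two-drug dosing of cells plated in 1536-well plates.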

The test system of test [2] is MS-1 (Small Cell Lung Carcinoma). Put shortly:
as §1

Test [3] deals with Raji (Burkitt's Lymphoma). The method, boiled down:
as §1

In test [4] the test system is NCI-H1876 (Small Cell Lung Carcinoma). Put shortly:
as §1

Test [5] relates to BxPC-3 (Pancreatic Carcinoma). Put shortly:
as §1

Test [6] deals with IST-MEL1 (Melanoma). Put shortly:
as §1

The test system of test [7] is OVCAR-3 (Ovarian Carcinoma). Put shortly: as §1
In test [8] the test system is MONO-MAC-6 (Acute Myeloid Leukemia). The method, boiled down: as §1
For test [9], the system named is NCI-H3118 (Head and Neck Carcinoma). Put shortly:
as §1

Test [10] concerns NAMALWA (Burkitt's Lymphoma). Put shortly: as §1
The subject of test [11] is KP-4 (Pancreatic Carcinoma). Put shortly: as §1
Test [12] deals with GAK (Melanoma). Put shortly: as §1
For test [13], the system named is PL4 (Pancreatic Carcinoma). Put shortly: as §1
The subject of test [14] is NCI-H1341 (Small Cell Lung Carcinoma). Put shortly: as §1
The test system of test [15] is NCI-H2373 (Mesothelioma). Put shortly:
as §1

The test system of test [16] is T84 (Colorectal Carcinoma). The method, boiled down: as §1
In test [17] the test system is AM-38 (Glioblastoma). Put shortly: as §1
Test [18] deals with NB1 (Neuroblastoma). The method, boiled down:
as §1

The subject of test [19] is NCI-H596 (Other Solid Carcinomas). Put shortly:
as §1

Test [20] has as its system OAW-28 (Ovarian Carcinoma). The method, boiled down:
as §1

Experimental findings from the supplement of paper PMC11061612 are described below.

As to `COc1nnc2ccc(N3CCC(c4ccc(OCCN5CCN(C)C(=O)[C@H]5C)cc4)CC3)nn12` [AZD5153] + CCN(CCO)CCCOc1ccc2c(Nc3cc(CC(=O)Nc4cccc(F)c4)[nH]n3)ncnc2c1 [AZD2811] (first compound max 1 µM, 7x7, partner max 1 µM), the Bliss excess in test [1] was -0.0132; in [2], -0.0171; in test [3], 0.0314; in [4], 0.0183; in test [5], -0.0244; in [6], -0.0196. For the same compound, the Bliss excess in test [7] is -0.0394; in test [8], 0.0519; in test [9], -0.0437; in test [10], -0.0493; in [11], -0.0849; in [12] it was -0.0273. The Bliss excess in test [13] is -0.0333; in test [14] it was 0.0041; in [15], -0.0642; in test [16], -0.0536; in [17], 0.039; in test [18], -0.0071. Further, the Bliss excess in test [19] is -0.0612; in [20], -0.0115.
With `COc1nnc2ccc(N3CCC(c4ccc(OCCN5CCN(C)C(=O)[C@H]5C)cc4)CC3)nn12` [AZD5153] + C[C@@H]1COCCN1C2=NC(=NC(=C2)C3(CC3)[S@](=N)(=O)C)C4=C5C=CNC5=NC=C4 [AZD6738] (first compound max 1 µM, 7x7, partner max 10 µM), the Bliss excess is -0.0205 in test [1]; -0.0701 in [2]; -0.0198 in test [3]; 0.089 in [4]; -0.0013 in test [5]; 0.0206 in test [6]. Moreover, the Bliss excess in test [7] is 0.0931; in test [8], -0.031; in [9], -0.0879; in test [10], -0.0799; in [11], -0.0217; in [12] it was -0.0005. Besides, the Bliss excess in test [13] was -0.0425; in test [14] it was 0.0243; in test [15], -0.0263; in [16] it was -0.131; in test [17] it was 0.0447; in [18] it was 0.0095. The Bliss excess in [19] was -0.0028; in test [20], 0.11.
`COc1nnc2ccc(N3CCC(c4ccc(OCCN5CCN(C)C(=O)[C@H]5C)cc4)CC3)nn12` [AZD5153] + Cc1c2c(nn1C)CSCc1cc(n(C)n1)CSc1cc(c3ccccc3c1)OCCCc1c(C(=O)O)n(C)c3c-2c(Cl)ccc13 [AZD5991] (first compound max 1 µM, 7x7, partner max 1 µM): the Bliss excess in test [1] is -0.0372; in [2] it was -0.0151; in [3], -0.0119; in test [4], 0.157; in test [5], -0.015; in test [6], -0.0116. The Bliss excess was 0.0003 in [7]; 0.0451 in test [8]; -0.0602 in test [9]; -0.0536 in test [10]; -0.0231 in test [11]; -0.0183 in test [12]. For the same compound, the Bliss excess in test [13] is -0.0242; in test [14], 0.0366; in test [15], -0.0104; in test [16] it was -0.0524; in test [17], -0.0083; in [18] it was -0.0211. Further, the figures for the Bliss excess in [19] and in test [20] were -0.0532 and 0.0515, respectively.
On to `COc1nnc2ccc(N3CCC(c4ccc(OCCN5CCN(C)C(=O)[C@H]5C)cc4)CC3)nn12` [AZD5153] + Cn1cnc2c(F)c(Nc3ccc(Br)cc3Cl)c(C(=O)NOCCO)cc21 [Selumetinib] (first compound max 1 µM, 7x7, partner max 10 µM), for which the Bliss excess in test [1] was -0.0138; in [2], -0.0665; in test [3], -0.0445; in test [4], -0.0499; in test [5], -0.0864; in [6], 0.0304. The Bliss excess in [7] was -0.0489; in test [8], -0.008; in test [9], -0.0164; in [10], -0.0375; in [11], 0.0157; in [12] it was -0.0532. Moreover, the Bliss excess was -0.0089 in [13]; -0.0282 in test [14]; -0.0666 in test [15]; -0.0588 in test [16]; -0.0064 in test [17]; -0.0454 in test [18]. In addition, the Bliss excess in test [19] is -0.0344; in [20], 0.0279.
As for `Cc1c2c(nn1C)CSCc1cc(n(C)n1)CSc1cc(c3ccccc3c1)OCCCc1c(C(=O)O)n(C)c3c-2c(Cl)ccc13` [AZD5991] + C1CN(CCC1(C(=O)N[C@@H](CCO)C2=CC=C(C=C2)Cl)N)C3=NC=NC4=C3C=CN4 [Capivasertib] (first compound max 1 µM, 7x7, partner max 3 µM), the Bliss excess in test [1] is -0.0079; in [2], 0.0265; in test [3], 0.0312; in test [4], 0.0708; in test [5], -0.0005; in test [6], 0.0025. Besides, the Bliss excess is 0.0217 in test [7]; 0.0378 in [8]; 0.0263 in test [9]; 0.0008 in test [10]; -0.005 in [11]; -0.029 in test [12]. Besides, the Bliss excess in test [13] was 0.0199; in [14] it was 0.0609; in test [15], -0.0671; in [16], -0.0185; in test [17] it was 0.0026; in test [18] it was -0.0186. The values for the Bliss excess in test [19] and in test [20] were -0.0035 and 0.045, respectively.
Turning to `Cc1c2c(nn1C)CSCc1cc(n(C)n1)CSc1cc(c3ccccc3c1)OCCCc1c(C(=O)O)n(C)c3c-2c(Cl)ccc13` [AZD5991] + C=CCn1c(=O)c2cnc(Nc3ccc(N4CCN(C)CC4)cc3)nc2n1-c1cccc(C(C)(C)O)n1 [AZD1775] (first compound max 1 µM, partner max 1 µM), the Bliss excess in test [1] is 0.0007; in test [2] it was -0.0462; in test [3] it was -0.013; in test [4], -0.0292; in test [5], -0.0125; in [6], -0.0318. In addition, the Bliss excess in [7] was 0.031; in test [8], -0.0256; in test [9], -0.0361; in [10], 0.0017; in test [11], -0.0245; in [12], -0.0077. The Bliss excess in [13] was -0.0928; in test [14] it was 0.0185; in [15], -0.0079; in [16], -0.0287; in [17], -0.0015; in [18], -0.0156. The Bliss excess in test [19] is -0.0682; in [20], 0.0049.
As for `Cc1c2c(nn1C)CSCc1cc(n(C)n1)CSc1cc(c3ccccc3c1)OCCCc1c(C(=O)O)n(C)c3c-2c(Cl)ccc13` [AZD5991] + CC1(C)CCC(CN2CCN(c3ccc(C(=O)NS(=O)(=O)c4ccc(NCC5CCOCC5)c([N+](=O)[O-])c4)c(Oc4cnc5[nH]ccc5c4)c3)CC2)=C(c2ccc(Cl)cc2)C1 [Venetoclax] (first compound max 1 µM, 7x7, partner max 1 µM), the Bliss excess in test [1] was 0.0286; in test [2], 0.0089; in test [3] it was 0.0287; in test [4] it was 0.12; in test [5], 0.0411; in [6] it was 0.009. In addition, the Bliss excess in test [7] was -0.0103; in test [8], 0.136; in test [9], -0.0163; in [10] it was -0.0172; in test [11], -0.0563; in test [12], 0.0208. For the same compound, the Bliss excess was -0.0611 in test [13]; 0.132 in [14]; -0.0391 in test [15]; -0.0369 in test [16]; -0.0091 in [17]; -0.0178 in test [18]. The Bliss excess in test [19] was -0.0102; in [20], 0.13.
